Laboratory results as given in patent US9187458B2, “Cyanoquinoline derivatives” (Tianjin Hemay Bio-Tech Co., LTD., priority 2010, dated 2015).
Counter-ions that a name gives are not always drawn.

Legend:
A431 cells = test: A431 Cell Growth Inhibition Test (MTT Assay); assay type: cell-based, human; conditions: Homo sapiens, A-431, 68 h, compound 1 μM, 68 h incubation, read-out: Growth Inhibition Ratio (%)
Summary of the method: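 Cells seeded at 2500/well in DMEM/F12 with 10% FBS, grown overnight, then exposed to compound for 68 h at 37 °C, 5% CO2. Viability by MTT (0.5 mg/ml, 4 h), DMSO-solubilised, OD 490 nm; IC50 is concentration giving 50% growth inhibition relative to controls.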

NCI-H1650 cells = test: NCI-H1650 Cell Growth Inhibition Test (SRB Assay); assay type: cell-based; conditions: Homo sapiens, 72 h incubation
Procedure: NCI-H1650 Cell Growth Inhibition Test (SRB Assay)
1. Cell strains: NCI-H1650 (human non-small cell lung cancer cell strains);
2. SRB, 0.4% (w/v) working solution was formulated with 1% glacial acetic acid and reserved at 4° C.; antitumor compounds; DMSO
(§1) 1. A plate (10 cm) of cells in logarithmic growth phase normally cultured was collected;
(§2) 2. The culture solution was sucked out. The plate was washed with 5 mL of PBS 1-2 times;
(§3) 3. 1.5 mL of 0.25% pancreatin was added to the plate to infiltrate the cells;
(§4) 4. The pancreatin was sucked out. The culture plate was placed in an incubator. Digestion was carried out for about 3 min at 37° C.;
5. 4 mL of complete culture solution was added to the culture plate to stop the digestion. The cells were carefully scoured with micropipette (1 ml) to give a uniform single cell suspension. The suspensin was implanted into a 96-well cell culture plate by 6000 cells/100 μl per well. The culture plate was incubated overnight under 5% CO2 at 37° C. In day 2, 100 μl of culture solution comprising a compound was added in each well, and further incubated for 72 h under 5% CO2 at 37° C.;
(§5) 6. The culture solution was sucked out. 100 uL of TCA fixed cells which were diluted to 10% were added to each well. The plate was kept in a refrigerator for 1 h at 4° C.
7. TCA stationary liquid was sucked out. Each well was washed with 150 μL of ddH2O five times;
8. After the stationary liquid was cleansed, the plate was dried in the air at the room temperature;
9. 60 μL of SRB staining solution was added in each well. The well was stained for 15 min at the room temperature;
10. The SRB staining solution was sucked out. Each well was washed with 150 μL of 1% glacial acetic acid five times;
11. After the SRB staining solution was cleansed, the plate was dried in the air at the room temperature;
12. 100 μL of 10 mM Tris was added in each well, the plate was vibrated to dissolve out SRB;
13. OD values were determined at 570 nM.
(§6) 1. Calculation of Relative Inhibition Ratio The inhibition ratio of a compound on cell growth=(PC−n)/(PC−NC)×100%
(§7) IC50: Concentration of a compound where inhibition ratio was 50%. IC50 values were fitted with Origin7.5.

BxPc-3 cells = test: BxPc-3 Cell Growth Inhibition Test (MTT Assay); assay type: cell-based; conditions: Homo sapiens, 72 h incubation
Procedure: BxPc-3 Cell Growth Inhibition Test (MTT Assay) Cell strains: BxPC-3 (human pancreatic cancer cell strains); Culture medium: 90% RPMI-1640+10% FBS; 1. A plate (10 cm) of cells in logarithmic growth phase normally cultured was collected; 2. The culture solution was sucked out. […] The plate was washed with 5 ml of PBS 1-2 times; 3. PBS was sucked out. 1.5 ml of 0.25% pancreatin was added to infiltrate the cells for 1 min; 4. The pancreatin was sucked out. The culture plate was placed in an incubator. Digestion was carried out for about 5 min at 37° C.; 5. 4.5 ml of complete culture solution was added to the culture plate to stop the digestion. The cells were carefully scoured with micropipette (1 ml) to give a uniform cell suspension. The suspension was implanted into a 96-well cell culture plate by 5000 cells/100 μl per well. The culture plate was incubated overnight under 5% CO2 at 37° C. In day 2, 100 μl of culture solution comprising a compound was added in each well, and further incubated for 72 h under 5% CO2 at 37° C. 6. The culture solution was sucked out; 7. 100 μl of serum-free culture solution containing 0.5 mg/ml MTT was added in each well, and incubated for 3 h; 8. The culture solution was carefully sucked out; 9. 100 μl of DMSO was added in each well and vibrated to dissolve; 10. OD values were determined at […]. 1. Calculation of Relative Inhibition Ratio The inhibition ratio of a compound on cell growth=(PC−n)/(PC−NC)×100% IC50: Concentration of a compound where inhibition ratio was 50%. IC50 values were fitted with Origin7.5.

AsPC-1 cells = test: AsPC-1 Cell Growth Inhibition Test (MTT Assay); assay type: cell-based; conditions: Homo sapiens, ASPC1, 72 h incubation
Procedure: AsPC-1 Cell Growth Inhibition Test (MTT Assay)
Cell strains: AsPC-1 (human pancreatic cancer cell strains);
as §1
(§8) 2. The culture solution was sucked out. The plate was washed with 5 ml of PBS 1-2 times;
(§9) 3. PBS was sucked out. 1.5 ml of 0.25% pancreatin was added to infiltrate the cells for 1 min;
4. The pancreatin was sucked out. The culture plate was placed in an incubator. Digestion was carried out for about 7.5 min at 37° C.;
5. 4.5 ml of complete culture solution was added to the culture plate to stop the digestion. The cells were carefully scoured with micropipette (1 ml) to give a uniform cell suspension. The suspension was implanted into a 96-well cell culture plate by 8000 cells/100 μl per well. The culture plate was incubated overnight under 5% CO2 at 37° C. In day 2, 100 μl of culture solution comprising a compound was added in each well, and further incubated for 72 h under 5% CO2 at 37° C.
(§10) 6. The culture solution was sucked out;
(§11) 7. 100 μl of serum-free culture solution containing 0.5 mg/ml MTT was added in each well, and incubated for 3 h;
(§12) 8. The culture solution was carefully sucked out;
(§13) 9. 100 μl of DMSO was added in each welland vibrated to dissolve;
(§14) 10. OD values were determined at 490 nM.
as §6, §7

Fadu cells = test: Fadu Cell Growth Inhibition Test (MTT Assay); assay type: cell-based; conditions: Homo sapiens, 72 h incubation
Procedure: Fadu Cell Growth Inhibition Test (MTT Assay)
Cell strains: Fudu (human head and neck cancer cell strains);
Culture medium: 90% EMEM+10% FBS;
as §1, §8, §9
(§15) 4. The pancreatin was sucked out. The culture plate was placed in an incubator. Digestion was carried out for about 5 min at 37° C.;
5. 4.5 ml of complete culture solution was added to the culture plate to stop the digestion. The cells were carefully scoured with micropipette (1 ml) to give a uniform cell suspension. The suspension was implanted into a 96-well cell culture plate by 6000 cells/100 μl per well. The culture plate was incubated overnight under 5% CO2 at 37° C. In day 2, 100 μl of culture solution comprising a compound was added in each well, and further incubated for 72 h under 5% CO2 at 37° C.
as §10, §11, §12, §13, §14, §6, §7

BT-474 cells = test: BT-474 Cell Growth Inhibition Test (SRB Assay); assay type: cell-based, human; conditions: Homo sapiens, 70 h incubation; for inhibition at 1 µM: BT-474, 70 h, compound 1 μM, read-out: Growth Inhibition Ratio (%)
Summary of the method: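 Human breast tumour BT-474 cells (1×10^5/ml seeding, overnight) exposed to compound 70 h at 37 °C, 5% CO2; TCA-fixed, SRB-stained, dye dissolved in 10 mM Tris and OD read at 570 nm. Inhibition ratio = (PC−n)/(PC−NC)×100%; IC50 is the concentration giving 50% inhibition, from fitted curves.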

CCRF-CEM/T cells = test: CCRF-CEM/T Cell Growth Inhibition Test (MTT Assay); assay type: cell-based; conditions: Homo sapiens, CCRF-CEM/T cells (resistant to paclitaxel), 72 h incubation
Procedure: CCRF-CEM/T Cell Growth Inhibition Test (MTT Assay)
Cell strains: CCRF-CEM/T (human acute lymphocytic cell leukemia cells);
triple lysate solution: 10% SDS, 5% isobutanol, 0.012M HCl.
1. Cells were cultured to exponential phase. The cells were suspension cells;
2. The cells were collected by centrifuge. The resulting cells were resuspended in a complete culture medium to a desired concentration. The cells suspension was implanted into a 96-well cell culture plate by 20000 cells per well. A compound was added in the wellsuch that the final volume of the system was 120 μl. The system was further incubated for 72 h under 5% CO2 at 37° C.
7. 30 μl of serum-free culture solution containing 2.5 mg/ml MTT was added in each well, and incubated for 3 h;
8. 150 μl of triple lysate solution was added in each well and placed to dissolve at the room temperature;
9. OD values were determined at 570 nM.
as §6, §7

NCI-H358 cells = test: NCI-H358 Cell Growth Inhibition Test (MTT Assay); assay type: cell-based; conditions: Homo sapiens, 72 h incubation
Procedure: NCI-H358 Cell Growth Inhibition Test (MTT Assay)
Cell strains: NCI-H358 (human non-small cell lung cancer cell strains);
as §1, §8, §9
4. The culture plate was placed in an incubator. Digestion was carried out for about 5 min at 37° C.;
5. 3 ml of complete culture solution was added to the culture plate to stop the digestion. Tthe cells were carefully scoured with micropipette (1 ml) to give a uniform cell suspension. The suspension was implanted into a 96-well cell culture plate by 10000 cells/100 […] per well. The culture plate was incubated overnight under 5% CO2 at 37° C. In day 2, 100 μA of culture solution comprising a compound was added in each well, and further incubated for 72 h under 5% CO2 at 37° C.
as §10
7. 100 μA of serum-free culture solution containing 0.5 mg/ml MTT was added in each well, and incubated for 3 h;
as §12
9. 100 μA of DMSO was added in each well and vibrated to dissolve;
as §14, §6, §7

SK-OV-3 cells = test: SK-OV-3 Cell Growth Inhibition Test (MTT Assay); assay type: cell-based; conditions: Homo sapiens, 72 h incubation
Procedure: SK-OV-3 Cell Growth Inhibition Test (MTT Assay)
Cell strains: SK-OV-3 (human ovarian cancer cell strains);
Culture medium: 90% McCoy's 5A+10% FBS;
as §1, §8, §9, §15
5. 4.5 ml of complete culture solution was added to the culture plate to stop the digestion.T the cells were carefully scoured with micropipette (1 ml) to give a uniform cell suspension. The suspension was implanted into a 96-well cell culture disc by 4000 cells/100 μl per well. The culture plate was incubated overnight under 5% CO2 at 37° C. In day 2, 100 μl of culture solution comprising a compound was added in each well, and further incubated for 72 h under 5% CO2 at 37° C.
as §10, §11, §12
9. 100 μl of DMSO was added in each well and vibrated to dissolve;
as §14, §6, §7

MDA-MB-453 cells = test: MDA-MB-453 Cell Growth Inhibition Test (SRB Assay); assay type: cell-based; conditions: Homo sapiens, 72 h incubation
Procedure: MDA-MB-453 Cell Growth Inhibition Test (SRB Assay)
Cell strains: MDA-MB-453 (human breast cancer cell strains);
SRB: 0.4% (w/v) working solution was formulated with 1% glacial acetic acid, reserved at 4° C.; antitumor compounds; DMSO
Culture medium: 90% L15+10% FBS;
as §1, §2, §3, §4
5. 4 mL of complete culture solution was added to the culture plate to stop the digestion. The cells were carefully scoured with micropipette (1 ml) to give a uniform single cell suspension. The suspension was implanted into a 96-well cell culture plate by 7000 cells/100 μl per well. The culture plate was incubated overnight under 5% CO2 at 37° C. In day 2, 100 μl of culture solution comprising a compound was added in each well, and further incubated for 72 h under 5% CO2 at 37° C.;
as §5
7. TCA stationary liquid was sucked out. […]
13. OD values were determined at […]. […]

CN(C)C/C=C/C(=O)Nc1cc2c(Nc3ccc(OCc4ccccn4)c(Cl)c3)c(C#N)cnc2cc1OC1CCOC1 (centres unmarked) [Example 3, (E)-N-(4-(3-CHLORO-4-(PYRIDIN-2-YL-METHOXY)PHENYLAMINO)-3-CYANO-7-(TETRAHYDROFURAN-3-YL-OXY)QUINOLIN-6-YL)-4-(DIMETHYLAMINO)-BUT-2-ENAMIDE HYDROCHLORIDE]
inhibition at 1 µM (A431 cells): 85% | IC50 (NCI-H1650 cells): 819 nM

CN1CCC(Oc2cc3ncc(C#N)c(Nc4ccc(Oc5ccccc5)nc4)c3cc2NC(=O)/C=C2/CCNC2)CC1 [Example 131, (E/Z)-N-(3-CYANO-7-(1-METHYLPIPERIDIN-4-YL-OXY)-4-(6-(PHENOXYPYRIDIN-3-YL-AMINO)QUINOLIN-6-YL)-2-(PYRROLIDIN-3-YLIDENE)ACETAMIDE]
IC50 (BxPc-3 cells): 306 nM

CN(C)C/C=C/C(=O)Nc1cc2c(Nc3ccc(OCc4cccc(F)c4)c(Cl)c3)c(C#N)cnc2cc1O[C@H]1CCOC1 [Example 158, (S,E)-N-(4-(4-(3-FLUOROBENZYLOXY)-3-CHLOROPHENYLAMINO)-3-CYANO-7-(TETRAHYDROFURAN-3-YL-OXY)QUINOLIN-6-YL)-4-(DIMETHYLAMINO)-BUT-2-ENAMIDE]
IC50 (AsPC-1 cells): 440 nM | inhibition at 1 µM (A431 cells): 77% | IC50 (Fadu cells): 119 nM | inhibition at 1 µM (BT-474 cells): 82% | IC50 (NCI-H1650 cells): 760 nM | IC50 (CCRF-CEM/T cells): 1100 nM

C#Cc1cccc(Nc2c(C#N)cnc3cc(O[C@H]4CCOC4)c(NC(=O)/C=C/CN(CCO)CCO)cc23)c1 [Example 188, (S,E)-N-(3-CYANO-4-(3-ETHYNYLPHENYLAMINO)-7-(TETRAHYDROFURAN-3-YL-OXY)QUINOLIN-6-YL)-4-(DIETHANOLAMINO)-BUT-2-ENAMIDE]
IC50 (NCI-H358 cells): 110 nM

C#Cc1cccc(Nc2c(C#N)cnc3cc(O[C@H]4CCOC4)c(NC(=O)/C=C/CN(C)CCOC)cc23)c1 [Example 189, (S,E)-N-(3-CYANO-4-(3-ETHYNYLPHENYLAMINO)-7-(TETRAHYDROFURAN-3-YL-OXY)QUINOLIN-6-YL)-4-(N-METHYLMETHOXYETHYLAMINO)-BUT-2-ENAMIDE]
IC50 (SK-OV-3 cells): 312 nM | IC50 (MDA-MB-453 cells): 523 nM | IC50 (BT-474 cells): 108 nM | inhibition at 1 µM (BT-474 cells): 85%
